According to patent publication US8987456B2, “3-pyridyl carboxamide-containing spleen tyrosine kinase (SYK) inhibitors” (Merck Sharp & Dohme Corp., priority 2011, dated 2015):
pIC50: −log10 of the molar value. Read-outs that look alike come from different tables or passages of the source.

What was measured:
[1] = biological target: T1, recombinant human GST-SYK (Homo sapiens, UniProt P43405); assay: Homogeneous Time-Resolved Fluorescence (HTRF) assay for the recombinant human Syk enzyme; assay type: biochemical; details: 5 pM GST-SYK, 25 μM ATP, 10-dose titration
T1 construct: purchased Carna Biosciences 08-176
Experimental: Biological Assay Homogeneous Time-Resolved Fluorescence (HTRF) Assay for the Recombinant Human Syk Enzyme
A recombinant GST-hSYK fusion protein was used to measure potency of compounds to inhibit human Syk activity. […] Final volume of the reaction was 10 μL. Phosphorylation of the peptide was allowed to proceed for 45′ at room temperature. To quench the reaction and detect the phosphorylated product, 2 nM of a Europium-anti-phosphotyrosine antibody (Perkin Elmer #AD0161) and 70 nM SA-APC (Perkin-Elmer #CR130-100) were added together in 15 mM Tris pH 7.5, 40 mM EDTA, 0.01% tween 20. Final volume of the quenching solution was 10 μL. The resulting HTRF signal was measured after 30 minutes on an EnVision (Perkin-Elmer) reader using a time-resolved fluorescence protocol.

allergic rhinitis [2] = details: dosed intranasally, phase I/II study; cited from earlier work
allergic rhinitis [3] = details: phase II clinical trial; cited from earlier work

Structure (SMILES)	pIC50 ([1]; read-out: rhSYK Activity)	pIC50 ([1]; read-out: IC50)	further results
Cc1nc(Nc2cc(NC[C@H](C)N)ncc2C(N)=O)ccc1-c1cnn(C)c1 [Example 1.9, 6-{[(2S)-2-aminopropyl]amino}-4-{[6-methyl-5-(1-methyl-1H-pyrazol-4-yl)pyridin-2-yl]amino}pyridine-3-carboxamide]	> 8.00		
Cc1cccc(Nc2cc(N[C@@H]3CCCC[C@H]3N)ncc2C(N)=O)n1 (relative stereo) [Example 2.8, rel-6-{[(1R,2R)-2-aminocyclohexyl]amino}-4-[(6-methylpyridin-2-yl)amino]pyridine-3-carboxamide]	6.00 to 7.00		
Cc1cc(C)nc(Nc2cc(N[C@H]3[C@@H](N)CCCC3(F)F)ncc2C(N)=O)c1 [Example 3.3, 6-{[(1S,6S)-6-amino-2,2-difluorocyclohexyl]amino}-4-[(4,6-dimethylpyridin-2-yl)amino]pyridine-3-carboxamide]	7.00 to 8.00		
CCC(C)(N)CNc1cc(Nc2cccc(C)n2)c(C(N)=O)cn1 (racemic) [Example 2.9, 6-[(2-amino-2-methylbutyl)amino]-4-[(6-methylpyridin-2-yl)amino]pyridine-3-carboxamide]	6.00 to 7.00		
Cc1nc(Nc2cc(N[C@@H]3CCCC[C@@H]3N)ncc2C(N)=O)ccc1F [Example 1.7, 6-{[(1R,2S)-2-aminocyclohexyl]amino}-4-[(5-fluoro-6-methylpyridin-2-yl)amino]pyridine-3-carboxamide]	7.00 to 8.00		
CCCC(N)CNc1cc(Nc2cccc(C)n2)c(C(N)=O)cn1 (racemic) [Example 2.11, 6-[(2-aminopentyl)amino]-4-[(6-methylpyridin-2-yl)amino]pyridine-3-carboxamide]	7.00 to 8.00		
NC(=O)c1cnc(N[C@@H]2CCCC[C@@H]2N)cc1Nc1ccc2ccccc2n1 [Example 1.6, 6-{[(1R,2S)-2-aminocyclohexyl]amino}-4-(quinolin-2-ylamino)pyridine-3-carboxamide]	> 8.00	8.24	
CCC(N)CNc1cc(Nc2cccc(C)n2)c(C(N)=O)cn1 (centres unmarked) [Example 2.1, 6-[(2-aminobutyl)amino]-4-[(6-methylpyridin-2-yl)amino]pyridine-3-carboxamide]	6.00 to 7.00		
Cc1cccc(Nc2cc(NCC(N)C3CC3)ncc2C(N)=O)n1 (racemic) [Example 2.12, 6-[(2-amino-2-cyclopropylethyl)amino]-4-[(6-methylpyridin-2-yl)amino]pyridine-3-carboxamide]	6.00 to 7.00		
Cc1cc(C)nc(Nc2cc(N[C@@H]3COC[C@H]3N)ncc2C(N)=O)c1 (relative stereo) [Example 2.4, rel-6-{[(3S,4S)-4-aminotetrahydrofuran-3-yl]amino}-4-[(4,6-dimethylpyridin-2-yl)amino]pyridine-3-carboxamide]	5.00 to 6.00		
Cc1cc(C)nc(Nc2cc(NCCN)ncc2C(N)=O)c1 [Example 2.2, 6-[(2-aminoethyl)amino]-4-[(4,6-dimethylpyridin-2-yl)amino]pyridine-3-carboxamide]	7.00 to 8.00		
Cc1cccc(Nc2cc(N[C@@H]3CCCC[C@@H]3N)ncc2C(N)=O)n1 [Example 1.2, 6-{[(1R,2S)-2-aminocyclohexyl]amino}-4-[(6-methylpyridin-2-yl)amino]pyridine-3-carboxamide]	7.00 to 8.00	8.35	
Cc1nc(Nc2cc(NCCN)ncc2C(N)=O)ccc1Br [Example 2.13, 6-[(2-aminoethyl)amino]-4-[(5-bromo-6-methylpyridin-2-yl)amino]pyridine-3-carboxamide]	7.00 to 8.00	7.18	
Cc1cc(C)nc(Nc2cc(N[C@@H]3[C@H](N)CCCC3(F)F)ncc2C(N)=O)c1 [Example 3.2, 6-{[(1R,6R)-6-amino-2,2-difluorocyclohexyl]amino}-4-[(4,6-dimethylpyridin-2-yl)amino]pyridine-3-carboxamide]	6.00 to 7.00	6.29	
Cc1cc(C)nc(Nc2cc(NCC(N)C(F)(F)F)ncc2C(N)=O)c1 (racemic) [Example 2.3, 6-[(2-amino-3,3,3-trifluoropropyl)amino]-4-[(4,6-dimethylpyridin-2-yl)amino]pyridine-3-carboxamide]	5.00 to 6.00	5.46	
Cc1cccc(Nc2cc(NCCN)ncc2C(N)=O)n1 [Example 1.3, 6-[(2-aminoethyl)amino]-4-[(6-methylpyridin-2-yl)amino]pyridine-3-carboxamide]	6.00 to 7.00	6.77	
C[C@H](N)CNc1cc(Nc2cc(-c3cnn(C)c3)cc(-c3cnn(C)c3)n2)c(C(N)=O)cn1 [Example 1.8, 6-{[(2S)-2-aminopropyl]amino}-4-{[4,6-bis(1-methyl-1H-pyrazol-4-yl)pyridin-2-yl]amino}pyridine-3-carboxamide]	> 8.00		
COC[C@H](N)CNc1cc(Nc2cccc(C)n2)c(C(N)=O)cn1 [Example 2.7, 6-{[(2R)-2-amino-3-methoxypropyl]amino}-4-[(6-methylpyridin-2-yl)amino]pyridine-3-carboxamide]	6.00 to 7.00		
NC(=O)c1cnc(N[C@@H]2CCCC[C@@H]2N)cc1Nc1cccc(-n2nccn2)n1 [Example 1.4, 6-{[(1R,2S)-2-aminocyclohexyl]amino}-4-{[6-(2H-1,2,3-triazol-2-yl)pyridin-2-yl]amino}pyridine-3-carboxamide]	> 8.00		
Oc1cccc(Nc2ncc(F)c(Nc3cccc(O)c3)n2)c1 [Example R112]			PGD2 (allergic rhinitis [2]): statistically significant decrease; clinical safety (allergic rhinitis [2]): safe across a range of indicators; efficacy versus placebo (allergic rhinitis [3]): lack of efficacy versus placebo
NC(=O)c1cnc(N[C@@H]2CCCC[C@@H]2N)cc1Nc1cccc(C(F)(F)F)n1 [Example 1.1, 6-{[(1R,2S)-2-aminocyclohexyl]amino}-4-{[6-(trifluoromethyl)pyridin-2-yl]amino}pyridine-3-carboxamide]	> 8.00	8.46	
Cc1cc(C)nc(Nc2cc(NC(C)CN)ncc2C(N)=O)c1 (racemic) [Example 2.10, 6-[(2-amino-1-methylethyl)amino]-4-[(4,6-dimethylpyridin-2-yl)amino]pyridine-3-carboxamide]	5.00 to 6.00	5.49	
Cc1cc(C)nc(Nc2cc(NC[C@H](C)N)ncc2C(N)=O)c1 [Example 3.1, 6-{[(2S)-2-aminopropyl]amino}-4-[(4,6-dimethylpyridin-2-yl)amino]pyridine-3-carboxamide]	7.00 to 8.00		
Cc1cc(C)nc(Nc2cc(NCC3(N)CCOC3)ncc2C(N)=O)c1 (racemic) [Example 2.6, 6-{[(3-aminotetrahydrofuran-3-yl)methyl]amino}-4-[(4,6-dimethylpyridin-2-yl)amino]pyridine-3-carboxamide]	5.00 to 6.00		
Cc1cc(C)nc(Nc2cc(NCC3(N)CCOCC3)ncc2C(N)=O)c1 [Example 2.5]	5.00 to 6.00		
